Test results as given in patent US20250197387A1, “BCL-XL DEGRADERS AND USES THEREOF” (Kymera Therapeutics, Inc., priority 2021, published 2025).

Target: T1, BCL-XL (Homo sapiens, UniProt Q07817)
T1 construct: endogenous in cells; host or cells: MOLT-4
Assay: BCL-XL degradation assay, western blot in MOLT-4 cells, 16 h
Format: cell-based
Conditions: western blot, MOLT-4 cells, 16 h; for Dmax: read-out: Bcl-xL WB in MOLT-4 degradation 16 h: Average Dmax %; for DC50: read-out: Bcl-xL WB in MOLT-4 degradation 16 h: Mean external-Abs DC50
Method: Compounds treatment: compounds were reconstituted in DMSO to make a stock concentration of 10 mM. MOLT-4 cells were maintained in RPMI-1640+10% FBS+1% Penicillin-Streptomycin. Cells were seeded into 6-well plates in 2 mL at the seeding density of 2e6 cells/mL. Compounds were added to the cells to a final concentration ranging 0.02-10 μM. After 16 hr incubation at 37° C., in a CO2 incubator, cells were collected in an Eppendorf tube and centrifuged at 200×g for 5 minutes, the supernatant removed and pellets washed with ice-cold PBS, centrifuged and supernatant removed again. Then. 50 μl of pre-chilled RIPA lysis buffer (Boston BioProducts. BP-115D) with protease and phosphatase inhibitors (Roche Applied Science. #04906837001 and #04693116001) was added into cell pellet to lyze the cells for 20 minutes under 4° C. Cell lysates were spin at 13000 rpm for 10 minutes. Supernatants were collected and protein concentration was measured by BCA assay kit (Solarbio. PC0020-500) following the manufacturer's protocol. Samples' final protein concentration was adjusted to 3.75 μg/uL with the RIPA lysis buffer based on BCA assay results and 4× loading buffer (Invitrogen. NP0007) was added into the samples and samples were heated to 85° C., for 10 min and then let cool at RT. Samples were centrifuged at 13000 rpm for 10 min and then loaded into a 26-well NuPAGER. Novex 4-12% Bis-Tris Midi Gel (Invitrogen. WG1403BOX) and run in NuPAGER MOPS SDS Running Buffer (Invitrogen. NP0001) for 180 minutes at 70 V into a XCell4 SureLock™ Midi-Cell Runner (Invitrogen. WR0100). Gel were transferred using the Invitrogen iBlot gel transfer device (Invitrogen. IB21001) and the nitrocellulose transfer stacks (Invitrogen, IB23001) with Program PO for 9 minutes. The membrane was then blocked with 5% bovin serum albumin for 1 hr at RT, then incubated with primary antibodies diluted in blocking buffer (LI-COR. 927-60001) and shake at 4° C., overnight. The primary antibodies were anti-BCL-xL antibody (CST. 2762:1:1000), anti-beta-actin (CST. 3700; 1:5000) and anti-GAPDH (CST. 97166:1:5000). Membranes were then washed three times with PBST for 15 minutes at RT. Secondary antibodies IR-Dye 680 CW Goat anti Mouse IgG (LI-COR. 926-68070) and IR-Dye 800 CW Goat anti Rabbit IgG (LI-COR. 926-32211) were diluted at a ratio of 1:10000 into PBST and membranes incubated for 1 hour at RT. Membranes were then washed three times with PBST for 15 minutes at RT. The western blot images were obtained using Odyssey Imaging System and quantified using Image Studio Lite Ver 5.2 software.
The letter codes for BCL-XL DC50 include: A (<0.01 μM); B (0.01-0.1 μM); C (>[…]); D (>0.5-1.0 μM); and E (>1.0 μM). The letter codes for Dmax % include A (>75%); B (50 to 75%); C (<50%).

T1 sequence (Q07817 whole entry): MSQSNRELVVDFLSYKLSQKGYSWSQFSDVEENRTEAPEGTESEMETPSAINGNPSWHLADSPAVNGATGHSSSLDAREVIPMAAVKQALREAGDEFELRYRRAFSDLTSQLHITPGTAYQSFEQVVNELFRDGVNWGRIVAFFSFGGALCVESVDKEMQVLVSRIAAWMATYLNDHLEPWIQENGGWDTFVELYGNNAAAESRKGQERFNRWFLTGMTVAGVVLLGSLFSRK

Dmax [%]	DC50 [µM]	SMILES
50 to 75	0.1 to 0.5	Cc1ncsc1-c1ccc([C@H](C)NC(=O)[C@@H]2C[C@@H](O)CN2C(=O)[C@@H](NC(=O)CCCC(=O)N2CCN(CCCC3(Cn4ncc(-c5ccc(N6CCc7cccc(C(=O)Nc8nc9ccccc9s8)c7C6)nc5C(=O)O)c4C)CCCCC3)CC2)C(C)(C)C)cc1 [I-130]
> 75	0.1 to 0.5	Cc1ncsc1-c1ccc([C@H](C)NC(=O)[C@@H]2C[C@@H](O)CN2C(=O)[C@@H](NC(=O)CCCCCCCC(=O)N(C)CCCc2cccc(F)c2OCCCc2sc(N3CCc4cccc(C(=O)Nc5nc6ccccc6s5)c4C3)nc2C(=O)O)C(C)(C)C)cc1 [I-11]
< 50	> 1	Cc1ncsc1-c1ccc(CNC(=O)[C@@H]2C[C@@H](O)CN2C(=O)[C@@H](NC(=O)C2(F)CC2)C(C)(C)C)c(O[C@H]2CC[C@H](N3CCN(CC[C@H](CSc4ccccc4)Nc4ccc(S(=O)(=O)NC(=O)c5ccc(N6CCN(CC7=C(c8ccc(Cl)cc8)CCC(C)(C)C7)CC6)cc5)cc4S(=O)(=O)C(F)(F)F)CC3)CC2)c1 (single isomer, unassigned) [I-114]
< 50	> 1	Cc1ncsc1-c1ccc([C@H](C)NC(=O)[C@@H]2C[C@@H](O)CN2C(=O)[C@@H](NC(=O)CCCN(C)C(=O)CCCCCc2ccc(N3CCc4cccc(C(=O)Nc5nc6ccccc6s5)c4C3)nc2C(=O)O)C(C)(C)C)cc1 [I-36, 6-(8-(benzo[d]thiazol-2-ylcarbamoyl)-3,4-dihydroisoquinolin-2 (1H)-yl)-3-(6-((4-(((S)-1-((2S,4R)-4-hydroxy-2-(((S)-1-(4-(4-methylthiazol-5-yl)phenyl)ethyl)carbamoyl)pyrrolidin-1-yl)-3,3-dimethyl-1-oxobutan-2-yl)amino)-4-oxobutyl)(methyl)amino)-6-oxohexyl)picolinic acid]
< 50	> 1	Cc1ncsc1-c1ccc([C@H](C)NC(=O)[C@@H]2C[C@@H](O)CN2C(=O)[C@@H](NC(=O)CCCCCC(=O)N2CCN(CC[C@@H](CSc3ccccc3)Nc3ccc(S(=O)(=O)NC(=O)c4ccc(N5CCC(C)(C)CC5)cc4)cc3S(=O)(=O)C(F)(F)F)CC2)C(C)(C)C)cc1 [I-393]
> 75	0.01 to 0.1	Cc1ncsc1-c1ccc(CNC(=O)[C@@H]2C[C@@H](O)CN2C(=O)C(c2cc(OCCCCCC(=O)N(C)CC#Cc3ccc(OCCCc4sc(N5CCc6cccc(C(=O)Nc7nc8ccccc8s7)c6C5)nc4C(=O)O)c(F)c3)no2)C(C)C)cc1 (some centres unmarked) [I-87]
< 50	> 1	Cc1ncsc1-c1ccc([C@H](C)NC(=O)[C@@H]2C[C@@H](O)CN2C(=O)[C@@H](NC(=O)CCCC(=O)N(C)CCN(C)c2cc3c(c(C(=O)Nc4nc5ccccc5s4)c2)CN(c2ccc(-c4cnn(CC5CCCCC5)c4C)c(C(=O)O)n2)CC3)C(C)(C)C)cc1 [I-110]
> 75	0.1 to 0.5	Cc1ncsc1-c1ccc(CNC(=O)[C@@H]2C[C@@H](O)CN2C(=O)[C@@H](NC(=O)C2(F)CC2)C(C)(C)C)c(OCCCCCCCC(=O)N(C)CC#Cc2cccc(F)c2OCCCc2sc(N3CCc4cccc(C(=O)Nc5nc6ccccc6s5)c4C3)nc2C(=O)O)c1 [I-20]
50 to 75	> 1	Cc1cc(N(CCN(C)C(=O)CCCOc2cc(-c3scnc3C)ccc2CNC(=O)[C@@H]2C[C@@H](O)CN2C(=O)[C@@H](NC(=O)C2(F)CC2)C(C)(C)C)c2ccc(-c3cnn(CC4CCCCC4)c3C)c(C(=O)O)n2)nnc1Nc1nc2ccccc2s1 [I-102]
> 75	0.1 to 0.5	Cc1ncsc1-c1ccc(CNC(=O)[C@@H]2C[C@@H](O)CN2C(=O)[C@@H](NC(=O)C2(F)CC2)C(C)(C)C)c(OCCCCCCCC(=O)N(C)CCCc2cccc(F)c2OCCCc2sc(N3CCc4cccc(C(=O)Nc5nc6ccccc6s5)c4C3)nc2C(=O)O)c1 [I-14]
> 75	0.1 to 0.5	Cc1ncsc1-c1ccc(CNC(=O)[C@@H]2C[C@@H](O)CN2C(=O)[C@@H](NC(=O)C2(F)CC2)C(C)(C)C)c(OCCCC(=O)N(C)CC#Cc2ccc(OCCCc3sc(N4CCc5cccc(C(=O)Nc6nc7ccccc7s6)c5C4)nc3C(=O)O)c(F)c2)c1 [I-6]
< 50	> 1	Cc1ncsc1-c1ccc([C@H](C)NC(=O)[C@@H]2C[C@@H](O)CN2C(=O)[C@@H](NC(=O)CCC2(Cn3ncc(-c4ccc(N5CCc6cccc(C(=O)Nc7nc8ccccc8s7)c6C5)nc4C(=O)O)c3C)CCCCC2)C(C)(C)C)cc1 [I-128, 6-(8-(benzo[d]thiazol-2-ylcarbamoyl)-3,4-dihydroisoquinolin-2 (1H)-yl)-3-(1-((1-(3-(((S)-1-((2S,4R)-4-hydroxy-2-(((S)-1-(4-(4-methylthiazol-5-yl)phenyl)ethyl)carbamoyl)pyrrolidin-1-yl)-3,3-dimethyl-1-oxobutan-2-yl)amino)-3-oxopropyl)cyclohexyl)methyl)-5-methyl-1H-pyrazol-4-yl)picolinic acid]
< 50	> 1	Cc1ncsc1-c1ccc(CNC(=O)[C@@H]2C[C@@H](O)CN2C(=O)[C@@H](NC(=O)C2(F)CC2)C(C)(C)C)c(O[C@H]2CC[C@H](C(=O)N3CCN(CC[C@H](CSc4ccccc4)Nc4ccc(S(=O)(=O)NC(=O)c5ccc(N6CCN(CC7=C(c8ccc(Cl)cc8)CCC(C)(C)C7)CC6)cc5)cc4S(=O)(=O)C(F)(F)F)CC3)CC2)c1 [I-89]
< 50	> 1	Cc1cc(N(CCN(C)C(=O)CCCCCCCCOc2cc(-c3scnc3C)ccc2CNC(=O)[C@@H]2C[C@@H](O)CN2C(=O)[C@@H](NC(=O)C2(F)CC2)C(C)(C)C)c2ccc(-c3cnn(CC4CCCCC4)c3C)c(C(=O)O)n2)nnc1Nc1nc2ccccc2s1 [I-104]
< 50	> 1	C#Cc1ccc([C@H](C)NC(=O)[C@@H]2C[C@@H](O)CN2C(=O)[C@@H](NC(=O)N2CCC3(CCC(C(=O)N4CCN(CC[C@H](CSc5ccccc5)Nc5ccc(S(=O)(=O)NC(=O)c6ccc(N7CCN(CC8=C(c9ccc(Cl)cc9)CCC(C)(C)C8)CC7)cc6)cc5S(=O)(=O)C(F)(F)F)CC4)CC3)CC2)C(C)(C)C)cc1 [I-127]
< 50	> 1	Cc1ncsc1-c1ccc([C@H](C)NC(=O)[C@@H]2C[C@@H](O)CN2C(=O)[C@@H](NC(=O)N2CC3(CCC(C(=O)N4CCN(CC[C@H](CSc5ccccc5)Nc5ccc(S(=O)(=O)NC(=O)c6ccc(N7CCN(CC8=C(c9ccc(Cl)cc9)CCC(C)(C)C8)CC7)cc6)cc5S(=O)(=O)C(F)(F)F)CC4)CC3)C2)C(C)(C)C)cc1 [I-125]
< 50	> 1	Cc1cc(N(CCN(C)C(=O)CCCCCCCCC(=O)N[C@H](C(=O)N2C[C@H](O)C[C@H]2C(=O)N[C@@H](C)c2ccc(-c3scnc3C)cc2)C(C)(C)C)c2ccc(-c3cnn(CC4CCCCC4)c3C)c(C(=O)O)n2)nnc1Nc1nc2ccccc2s1 [I-101]
< 50	> 1	Cc1ncsc1-c1ccc([C@H](C)NC(=O)[C@@H]2C[C@@H](O)CN2C(=O)[C@@H](NC(=O)CCCCCS(=O)(=O)NC(=O)c2ccc(N3CCN(CC4=C(c5ccc(Cl)cc5)CCC(C)(C)C4)CC3)cc2)C(C)(C)C)cc1 [I-106]
< 50	> 1	Cc1ncsc1-c1ccc(CNC(=O)[C@@H]2C[C@@H](O)CN2C(=O)[C@@H](NC(=O)CCCC(=O)N(C)CCN(C)c2cc3c(c(C(=O)Nc4nc5ccccc5s4)c2)CN(c2ccc(-c4cnn(CC5CCCCC5)c4C)c(C(=O)O)n2)CC3)C(C)(C)C)cc1 [I-109]
